In patent US10202371B2, “Oxazolidin-2-one-pyrimidine derivatives and the use thereof as phosphatidylinositol-3-kinase inhibitors” (Novartis AG, priority 2012, dated 2019):

Target: PI3Kgamma (Homo sapiens (Human), UniProt P48736)
Experiment: Biochemical assay PI3Kgamma (Adapta TR-FRET)
Details: read-out: PI3Kg/IC50
Text: The TR-FRET Adapta™ Universal Kinase Assay Kit was purchased from Invitrogen
Corporation (Carlsbad/CA, USA) (Cat. No. PV5099). The kit contains the following reagents: Adapta Eu-anti-ADP Antibody (Europium labeled anti-ADP antibody in HEPES buffered saline, Cat. No. PV5097), Alexa Fluor® 647-labeled ADP tracer (Alexa Fluor® 647-labeled ADP tracer in HEPES buffered saline, Cat. No. PV5098), proprietary TR-FRET dilution buffer pH 7.5 (Cat. No. PV3574).
PIK3CD substrate Phosphatidylinositol was obtained from Invitrogen (vesicules consisting of 2 mM PI in 50 mM HEPES pH7.5; Cat. No. PV5371).
Time-Resolved Fluorescence Resonance Energy Transfer (TR-FRET) is a technology based on energy transfer between two adjacent dyes, from an excited electron in one dye (the donor) to an electron of an adjacent dye (the acceptor) through resonance, then released as a photon. This energy transfer is detected by an increase in the fluorescence emission of the acceptor, and a decrease in the fluorescence emission of the donor. TR-FRET assays for protein kinases use a long-lifetime lanthanide Terbium or Europium chelates as the donor species which overcome interference from compound autofluorescence or light scatter from precipitated compounds, by introducing a delay after excitation by a flashlamp excitation source. Results are often expressed as a ratio of the intensities of the acceptor and donor fluorophores. The ratiometric nature of such a value corrects for differences in assay volumes between wells, as well as corrects for quenching effects due to colored compounds. The Adapta™ assay can be divided into two phases: a kinase reaction phase and an ADP detection phase. In the kinase reaction phase, all kinase reaction components are added to the well and the reaction is allowed to incubate for a set period of time specific for each kinase. After the reaction, a detection solution of Eu-labeled anti-ADP antibody, Alexa Fluor® 647-labeled ADP tracer, and EDTA (to stop the kinase reaction) are added to the assay well. ADP formed by the kinase reaction will displace the Alexa Fluor® 647-labeled ADP tracer from the antibody, resulting in a decrease in TR-FRET signal. In the presence of an inhibitor, the amount of ADP formed by the kinase reaction is reduced, and the resulting intact antibody-tracer interaction maintains a high TR-FRET signal. In the Adapta™ assay, the donor (Europium-anti-ADP antibody) is excited at 340 nm and will transfer its energy to the acceptor (Alexa Fluor® 647-labeled ADP tracer). The emission from the Alexa Fluor® 647 can be monitored with a filter centered at 665 nm because it is located between the emission peaks of the donor, which is measured at 615/620 nm.
50 nL of compound dilutions were dispensed onto white 384-well small volume polystyrene plate as described in section 2.2. Then 5 μL of PI3Kg and PI3Kd and lipid substrate (PI or PIP2:PS) followed by 5 μL of ATP (final assay volume 10 μL) are incubated at RT. The standard reaction buffer for the Adapta™ TR-FRET assay contained 10 mM Tris-HCl pH 7.5, 3 mM MgCl2, 50 mM NaCl, 1 mM DTT, 0.05% CHAPS. Reactions were stopped with 5 μL of a mixture of EDTA containing the Eu-labeled anti-ADP antibody and the Alexa Fluor® 647-labeled ADP tracer in TR-FRET dilution buffer (proprietary to IVG). Plates are read 15 to 60 mins later in a Synergy2 reader using an integration time of 0.4 seconds and a delay of 0.05 seconds. […] The standard compound NVP-BGT226 was used as a reference compound and included in all assay plates in the form of 16 dilution points in duplicate.
Data are analyzed using Excel fit software or Graphpad Prism. EC50 values were derived by fitting a sigmoidal dose-response curve to a plot of assay readout over inhibitor concentration. All fits were performed with the program XLfit4 (ID Business Solutions, Guildford, UK). […] All fits were performed with the program XLfit4 (ID Business Solutions, Guildford, UK).

Sequence of PI3Kgamma (P48736 whole entry, species assumed): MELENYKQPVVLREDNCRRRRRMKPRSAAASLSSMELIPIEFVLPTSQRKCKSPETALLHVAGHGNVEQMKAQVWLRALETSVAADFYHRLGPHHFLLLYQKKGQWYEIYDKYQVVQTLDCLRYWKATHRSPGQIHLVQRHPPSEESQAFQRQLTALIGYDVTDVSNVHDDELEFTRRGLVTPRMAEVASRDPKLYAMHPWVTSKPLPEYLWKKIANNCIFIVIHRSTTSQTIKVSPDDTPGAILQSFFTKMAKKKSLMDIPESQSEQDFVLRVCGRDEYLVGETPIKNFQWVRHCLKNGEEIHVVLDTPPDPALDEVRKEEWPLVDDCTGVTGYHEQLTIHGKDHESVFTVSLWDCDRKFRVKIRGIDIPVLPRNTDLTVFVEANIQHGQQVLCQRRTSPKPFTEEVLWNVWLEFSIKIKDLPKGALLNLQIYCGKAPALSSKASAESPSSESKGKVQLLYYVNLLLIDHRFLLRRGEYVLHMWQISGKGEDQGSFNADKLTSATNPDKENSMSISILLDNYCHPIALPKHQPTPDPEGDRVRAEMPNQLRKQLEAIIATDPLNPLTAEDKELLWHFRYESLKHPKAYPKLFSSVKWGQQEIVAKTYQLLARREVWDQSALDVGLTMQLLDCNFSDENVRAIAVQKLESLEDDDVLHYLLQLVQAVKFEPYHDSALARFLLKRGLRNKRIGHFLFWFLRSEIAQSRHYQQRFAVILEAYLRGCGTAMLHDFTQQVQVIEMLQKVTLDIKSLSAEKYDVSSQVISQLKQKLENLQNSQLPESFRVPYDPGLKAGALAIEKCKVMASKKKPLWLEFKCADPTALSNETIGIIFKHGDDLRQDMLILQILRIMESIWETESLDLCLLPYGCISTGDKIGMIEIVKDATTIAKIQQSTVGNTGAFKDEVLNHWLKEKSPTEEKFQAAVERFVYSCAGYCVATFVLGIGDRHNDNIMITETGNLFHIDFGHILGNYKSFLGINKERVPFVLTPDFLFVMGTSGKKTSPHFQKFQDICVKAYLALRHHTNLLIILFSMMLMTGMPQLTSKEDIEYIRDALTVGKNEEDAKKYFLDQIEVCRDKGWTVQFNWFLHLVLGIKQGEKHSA

SMILES | IC50 [µM]
COCCOc1ccc([C@@H]2OC(=O)N(c3cc(-c4cnc(N)nc4C(F)(F)F)nc(N4CCOCC4)n3)[C@H]2CO)cc1 [Example 12] | 0.135
CC[C@H]1[C@H](c2ccc(OC)cc2)OC(=O)N1c1cc(-c2cnc(N)nc2C(F)(F)F)nc(N2CCOCC2)n1 (relative stereo) [Example 2, (4S*,5S*)-3-(2′-amino-2-morpholino-4′-(trifluoromethyl)-[4,5′-bipyrimidin]-6-yl)-4-ethyl-5-(4-methoxyphenyl)oxazolidin-2-one] | 5.8
CC[C@H]1[C@H](c2nccs2)OC(=O)N1c1cc(-c2cnc(N)nc2C(F)(F)F)nc(N2CCOCC2)n1 [Example 7] | 3
COc1ccc([C@@H]2OC(=O)N(c3cc(-c4cnc(N)nc4C(F)(F)F)nc(N4CCOCC4)n3)[C@H]2CO)cc1 [Example 3, (4S,5S)-3-(2′-Amino-2-morpholino-4′-(trifluoromethyl)-[4,5′-bipyrimidin]-6-yl)-4-(hydroxymethyl)-5-(4-methoxyphenyl)oxazolidin-2-one] | 0.11
CC1C(c2cccnc2)OC(=O)N1c1cc(-c2cnc(N)nc2C(F)(F)F)nc(N2CCOCC2)n1 (stereo not drawn) [Example 9] | 0.23
C[C@H]1[C@H](c2nccs2)OC(=O)N1c1cc(-c2cnc(N)nc2C(F)(F)F)nc(N2CCOCC2)n1 [Example 1, (4S,5R)-3-(2′-Amino-2-morpholin-4-yl-4′-trifluoromethyl-[4,5′]bipyrimidinyl-6-yl)-4-methyl-5-thiazol-2-yl-oxazolidin-2-one] | 0.092
Nc1ncc(-c2cc(N3C(=O)O[C@@H](c4ccccc4)[C@@H]3CO)nc(N3CCOCC3)n2)c(C(F)(F)F)n1 [Example 10] | 0.343
Nc1ncc(-c2cc(N3C(=O)O[C@@H](c4ccc(OCCCO)cc4)[C@@H]3CO)nc(N3CCOCC3)n2)c(C(F)(F)F)n1 [Example 14] | 0.027
C[C@H]1[C@@H](c2nccs2)OC(=O)N1c1cc(-c2cnc(N)nc2C(F)(F)F)nc(N2CCOCC2)n1 [Example 11] | 0.102
C[C@H]1[C@H](c2ccccc2)OC(=O)N1c1cc(-c2cnc(N)nc2C(F)(F)F)nc(N2CCOCC2)n1 [Example 5] | 3.5
Nc1ncc(-c2cc(N3C(=O)O[C@@H](c4ccc(OCCO)cc4)[C@@H]3CO)nc(N3CCOCC3)n2)c(C(F)(F)F)n1 [Example 13] | 0.1
CCC1C(c2cccnc2)OC(=O)N1c1cc(-c2cnc(N)nc2C(F)(F)F)nc(N2CCOCC2)n1 (stereo not drawn) [Example 8] | 0.58
